Data set [1] in a line: Selectivity index, ratio of GI50 for human THP1 cells to MIC for dormant phase Mycobacterium tuberculosis H37Ra ATCC 25177. The data set is classed as toxicity, cell-based, THP-1. The conditions noted are these: read-out: Selectivity Index.
Data set [2] in a line: Selectivity index, ratio of GI50 for human A549 cells to MIC for dormant phase Mycobacterium tuberculosis H37Ra ATCC 25177. It counts as toxicity, cell-based. The conditions noted are these: read-out: Selectivity Index.
Data set [3] in a line: Cytotoxicity against human THP1 cells assessed as growth inhibition after 48 hrs by MTT assay. It counts as cell-based, THP-1. The conditions noted are these: for GI50 at 48 h: THP1 cells; for GI90: thp-1, 48 h. On the technique in general: Formazan colour is commonly taken as a measure of viable cells.
Data set [4] relates to Mycobacterium tuberculosis. The data set can be described thus: Antitubercular activity against dormant phase Mycobacterium tuberculosis H37Ra ATCC 25177 incubated for 12 days by XTT reduction menadione assay. The data set is classed as functional, organism-based. The conditions noted are these: 288 h.
Data set [5] can be described thus: Selectivity index, ratio of GI50 for human PANC1 cells to MIC for dormant phase Mycobacterium tuberculosis H37Ra ATCC 25177. It counts as toxicity, cell-based, PANC-1. The conditions noted are these: read-out: Selectivity Index.
The nature of data set [6]: (§1) Cytotoxicity against human A549 cells assessed as growth inhibition after 48 hrs by MTT assay. It counts as cell-based. The conditions noted are these: A549 cells.
The next data set has as its system A549. Described as §1. The data set is classed as cell-based. The conditions noted are these: a549, 48 h.
Data set [7] can be described thus: Cytotoxicity against human PANC1 cells assessed as growth inhibition after 48 hrs by MTT assay. The data set is classed as cell-based, PANC-1. The note with it: for GI50 at 48 h: PANC1 cells; for GI90: panc-1, 48 h.
Data set [8] can be described thus: Antioxidant activity assessed as DPPH radical scavenging activity after 30 mins by spectrophotometric analysis. It counts as physicochemical.

In brackets after ≈: the same amount, converted by molar mass. Bounds are passed on as bounds.

On to `Clc1ccc(Cn2cc(COc3ccc(Cl)cc3)nn2)cc1`, for which the values for the selectivity ratio in [1], in data set [2] and in data set [5] were 2.1, over 12.2 and over 12.2, respectively. Moreover, the GI50 at 48 h is 17.4 µg/mL (≈ 52.1 µM) in data set [3], over 100 µg/mL in data set [6] and over 100 µg/mL in [7]. Moreover, the GI90 in data set [3] is 89.7 µg/mL (≈ 268 µM); in the data set on A549, over 100 µg/mL; in data set [7], over 100 µg/mL. For the same compound, the IC50 in [4] came out at 0.7 µg/mL (≈ 2.09 µM); in data set [8] it was 26.1 µg/mL (≈ 78.1 µM). In [4], this compound returned an MIC of 8.2 µg/mL (≈ 24.5 µM).
As for `Cc1cc(OCc2cn(Cc3ccc(Cl)cc3)nn2)ccc1Cl`, the selectivity ratio in [1] is 1.2; in [2], over 3.7; in [5], over 3.7. Besides, the GI50 at 48 h in [3] is 31.2 µg/mL (≈ 89.6 µM); in [6] it was over 100 µg/mL; in [7] it was over 100 µg/mL. Further, the GI90 in [3] is 88.1 µg/mL (≈ 253 µM); in the data set on A549, over 100 µg/mL; in [7] it was over 100 µg/mL. The IC50 in data set [4] amounted to 0.2 µg/mL (≈ 0.574 µM); in data set [8], 11.4 µg/mL (≈ 32.7 µM). For the same compound, the MIC in data set [4] turned out to be 26.9 µg/mL (≈ 77.2 µM).
Turning to `Clc1ccc(OCc2cn(Cc3cccc(Cl)c3)nn2)cc1`, the selectivity ratio in data set [1] is 0.8; in [2], over 3.9; in data set [5], over 3.9. For the same compound, the concentration for 50% growth inhibition (GI50) at 48 h was 20.9 µg/mL (≈ 62.5 µM) in data set [3], over 100 µg/mL in data set [6] and over 100 µg/mL in [7]. Further, the GI90 (in data set [3]; in the data set with A549; in data set [7]) was over 100 µg/mL each time. Also, the IC50 turned out to be 2.9 µg/mL (≈ 8.68 µM) in [4] and 23.3 µg/mL (≈ 69.7 µM) in data set [8]. Also, the MIC in data set [4] worked out at 25.8 µg/mL (≈ 77.2 µM).
For `Cc1cc(OCc2cn(Cc3ccc([N+](=O)[O-])cc3)nn2)ccc1Cl`, the selectivity ratio in data set [1] was 1; in data set [2], over 3.6; in data set [5] it was over 3.6. The GI50 at 48 h in [3] is 27.9 µg/mL (≈ 77.8 µM); in [6], over 100 µg/mL; in data set [7], over 100 µg/mL. For the same compound, the values for the GI90 (in [3]; with A549; in [7]) were 84.3 µg/mL (≈ 235 µM), over 100 µg/mL and over 100 µg/mL, respectively. Besides, the IC50 worked out at 0.8 µg/mL (≈ 2.23 µM) in [4] and 13.4 µg/mL (≈ 37.3 µM) in [8]. The MIC in data set [4] was 28.2 µg/mL (≈ 78.6 µM).
`Clc1ccc(Cn2cc(COc3c(Cl)cc(Cl)cc3Cl)nn2)cc1`: the selectivity ratio in data set [1] was 3.2; in data set [2], over 12.9; in data set [5], over 12.9. The GI50 at 48 h is 25.1 µg/mL (≈ 62.3 µM) in data set [3], over 100 µg/mL in [6] and over 100 µg/mL in [7]. Besides, the GI90 (in [3]; in the data set on A549; in data set [7]) was over 100 µg/mL in each case. Also, the IC50 in [4] was determined as 0.8 µg/mL (≈ 1.98 µM); in data set [8] it was 27.2 µg/mL (≈ 67.5 µM). Further, the MIC in data set [4] amounted to 7.7 µg/mL (≈ 19.1 µM).
Regarding `Clc1ccc(OCc2cn(Cc3ccc(Br)cc3)nn2)cc1`, the selectivity ratio in data set [1] is 9.2; in data set [2], over 17.3; in [5], over 17.3. Besides, the GI50 at 48 h is 52.9 µg/mL (≈ 140 µM) in data set [3], over 100 µg/mL in data set [6] and over 100 µg/mL in data set [7]. The GI90 (in data set [3]; with A549; in data set [7]) was over 100 µg/mL each time. Besides, the IC50 in [4] is 0.5 µg/mL (≈ 1.32 µM); in data set [8] it was 11 µg/mL (≈ 29.1 µM). Further, 5.8 µg/mL (≈ 15.3 µM) was the least that counted as inhibitory in data set [4] (MIC).
`Clc1cc(Cl)c(OCc2cn(Cc3ccc(Br)cc3)nn2)c(Cl)c1`: the selectivity ratio in [1] is 2.1; in data set [2] it was over 3.6; in data set [5], over 3.6. The GI50 at 48 h in [3] is 58.7 µg/mL (≈ 131 µM); in [6], over 100 µg/mL; in data set [7], over 100 µg/mL. Also, the GI90 (in data set [3]; with A549; in data set [7]) was over 100 µg/mL each time. Moreover, the 50% inhibitory concentration (IC50) in [4] is 0.9 µg/mL (≈ 2.01 µM); in data set [8], 14 µg/mL (≈ 31.3 µM). In data set [4], this compound displayed an MIC of 27.8 µg/mL (≈ 62.1 µM).

As usually defined, the GI50 is the concentration at which growth is held to half of that of the control. Broadly, the IC50 is the concentration that gives 50% inhibition. One may read the MIC as the lowest concentration found to suppress growth.

For the origin of these results see ChEMBL document CHEMBL3739373, “1,2,3-Triazole derivatives as antitubercular agents: synthesis, biological evaluation and molecular docking study” (Medchemcomm, 2015).
